Measured values as given in US8192962B2, “Processes for detecting toxic substances” (Daikin Industries, Ltd., priority 2001, dated 2012).

System: Genes belonging to other category
Test: DNA chip mRNA expression in yeast, genes belonging to other category (Table 9)
Format: cell-based, Saccharomyces cerevisiae S288C
Experimental: Yeast (Saccharomyces cerevisiae S288C (α SUC2mal mel gap2 CUP1)) were incubated at 25° C. on YPD medium (yeast extract 1%, polypepton 2%, glucose 2%). One of toxic chemical substances was added to the cells at logarithmic growth phase, and the cells were further incubated for two hours. Cells were cultured without any chemical substance in the same condition, and were used as control. Concentrations of the chemical substances were defined to inhibit the growth of the yeast but not lead to death.
After completion of the incubation, the culture was centrifuged to collect the cells. To the cells, sodium acetate buffer (50 mM sodium acetate, 10 mM EDTA, 1% SDS) was added, and the mixture was shaken at 65° C. for five minutes, followed by returning to room temperature, and obtaining the supernatant, of which the procedures were repeated two times. To the supernatant, ½ amount of a solution of phenol/chloroform was added, and the mixture was centrifuged to give a supernatant, which was added with an equal amount of chloroform, and the mixture was centrifuged to give a supernatant. To the supernatant, an equal amount of isopropanol containing 0.3 M sodium acetate was added, and the mixture was allowed to stand at room temperature for 30 minutes, after which the mixture was centrifuged to give a sediment of the whole RNAs. Seventy % ethanol was added to the sediment, and the mixture was again centrifuged to give a sediment, which was then dried and dissolved in water. mRNA was isolated from the whole RNAs as followings. In view of the fact that a poly A chain is attached to the 3′ terminus of mRNA, a polynucleotide having a poly T structure which was immobilized on the surface of latex beads was used to trap the mRNA, and then the mRNA was washed and eluted with spine column (Oligotex-dT30<Super>mRNA Purification Kit, Takara). Reverse transcription of the mRNA was conducted with a reverse transcriptase (Super Script II Reverse Transcriptase; catalogue No. 18064-014, GibcoBRL) using fluorescence-labeled nucleotides to give cDNAs that were introduced with Cy3-dUTP or Cy5-dUTP during the reverse transcription.
The labeled cDNAs were dissolved in TE buffer (10mM Tris-HCl/1 mM EDTA, pH8.0), and the solution was dropped on the DNA chip containing the whole genes of yeast (DNA Chip Research Inc. Japan) so that the cDNAs were hybridized on the DNA chip at 65° C. for over 12 hours. The fluoresces intensity of the DNA chip was read with a scanner, and the ratio relative to the fluorescence intensity resulting from the absence of chemical substance was estimated as the following, which is shown in Tables 1 to 9: […]

CCCCCCCCCCCCc1ccc(S(=O)(=O)[O-])cc1.[Na+] [(17), sodium dodecylbenzosulfonate]
The level of expressed mRNA in the presence of chemical substance/The level of expressed mRNA in the absence of chemical substance (yeast gene YKL008C): 1.4 | The level of expressed mRNA in the presence of chemical substance/The level of expressed mRNA in the absence of chemical substance (yeast gene YKL013C): 1.6 | The level of expressed mRNA in the presence of chemical substance/The level of expressed mRNA in the absence of chemical substance (yeast gene YKL039W): 1.2 | The level of expressed mRNA in the presence of chemical substance/The level of expressed mRNA in the absence of chemical substance (yeast gene YKL096W): 0.5 | The level of expressed mRNA in the presence of chemical substance/The level of expressed mRNA in the absence of chemical substance (yeast gene YKL165C): 0.9 | The level of expressed mRNA in the presence of chemical substance/The level of expressed mRNA in the absence of chemical substance (yeast gene YKL193C): 1.2 | The level of expressed mRNA in the presence of chemical substance/The level of expressed mRNA in the absence of chemical substance (yeast gene YLR120C): 3.5 | The level of expressed mRNA in the presence of chemical substance/The level of expressed mRNA in the absence of chemical substance (yeast gene YLR136C): 1.8 | The level of expressed mRNA in the presence of chemical substance/The level of expressed mRNA in the absence of chemical substance (yeast gene YLR178C): 2.0 | The level of expressed mRNA in the presence of chemical substance/The level of expressed mRNA in the absence of chemical substance (yeast gene YLR250W): 1.4 | The level of expressed mRNA in the presence of chemical substance/The level of expressed mRNA in the absence of chemical substance (yeast gene YLR327C): 3.3 | The level of expressed mRNA in the presence of chemical substance/The level of expressed mRNA in the absence of chemical substance (yeast gene YLR356W): 1.1 | The level of expressed mRNA in the presence of chemical substance/The level of expressed mRNA in the absence of chemical substance (yeast gene YLR362W): 1.2 | The level of expressed mRNA in the presence of chemical substance/The level of expressed mRNA in the absence of chemical substance (yeast gene YLR391W): 1.4 | The level of expressed mRNA in the presence of chemical substance/The level of expressed mRNA in the absence of chemical substance (yeast gene YLR429W): 1.0 | The level of expressed mRNA in the presence of chemical substance/The level of expressed mRNA in the absence of chemical substance (yeast gene YMR004W): 0.9 | The level of expressed mRNA in the presence of chemical substance/The level of expressed mRNA in the absence of chemical substance (yeast gene YMR094W): 1.0 | The level of expressed mRNA in the presence of chemical substance/The level of expressed mRNA in the absence of chemical substance (yeast gene YMR104C): 2.8 | The level of expressed mRNA in the presence of chemical substance/The level of expressed mRNA in the absence of chemical substance (yeast gene YMR219W): 1.1 | The level of expressed mRNA in the presence of chemical substance/The level of expressed mRNA in the absence of chemical substance (yeast gene YMR226C): 1.6 | The level of expressed mRNA in the presence of chemical substance/The level of expressed mRNA in the absence of chemical substance (yeast gene YMR275C): 0.9 | The level of expressed mRNA in the presence of chemical substance/The level of expressed mRNA in the absence of chemical substance (yeast gene YMR276W): 1.2 | The level of expressed mRNA in the presence of chemical substance/The level of expressed mRNA in the absence of chemical substance (yeast gene YMR314W): 1.3 | The level of expressed mRNA in the presence of chemical substance/The level of expressed mRNA in the absence of chemical substance (yeast gene YNL006W): 1.0 | The level of expressed mRNA in the presence of chemical substance/The level of expressed mRNA in the absence of chemical substance (yeast gene YNL007C): 1.1 | The level of expressed mRNA in the presence of chemical substance/The level of expressed mRNA in the absence of chemical substance (yeast gene YNL093W): 3.0 | The level of expressed mRNA in the presence of chemical substance/The level of expressed mRNA in the absence of chemical substance (yeast gene YNL333W): 1.4 | The level of expressed mRNA in the presence of chemical substance/The level of expressed mRNA in the absence of chemical substance (yeast gene YNR010W): 1.7 | The level of expressed mRNA in the presence of chemical substance/The level of expressed mRNA in the absence of chemical substance (yeast gene YNR069C): 1.1 | The level of expressed mRNA in the presence of chemical substance/The level of expressed mRNA in the absence of chemical substance (yeast gene YOL013C): 1.1 | The level of expressed mRNA in the presence of chemical substance/The level of expressed mRNA in the absence of chemical substance (yeast gene YOL164W): 1.1 | The level of expressed mRNA in the presence of chemical substance/The level of expressed mRNA in the absence of chemical substance (yeast gene YOR036W): 1.6 | The level of expressed mRNA in the presence of chemical substance/The level of expressed mRNA in the absence of chemical substance (yeast gene YOR117W): 1.4 | The level of expressed mRNA in the presence of chemical substance/The level of expressed mRNA in the absence of chemical substance (yeast gene YOR124C): 1.0 | The level of expressed mRNA in the presence of chemical substance/The level of expressed mRNA in the absence of chemical substance (yeast gene YOR132W): 1.2 | The level of expressed mRNA in the presence of chemical substance/The level of expressed mRNA in the absence of chemical substance (yeast gene YOR157C): 1.2 | The level of expressed mRNA in the presence of chemical substance/The level of expressed mRNA in the absence of chemical substance (yeast gene YOR181W): 1.1 | The level of expressed mRNA in the presence of chemical substance/The level of expressed mRNA in the absence of chemical substance (yeast gene YOR185C): 0.9 | The level of expressed mRNA in the presence of chemical substance/The level of expressed mRNA in the absence of chemical substance (yeast gene YOR198C): 1.1 | The level of expressed mRNA in the presence of chemical substance/The level of expressed mRNA in the absence of chemical substance (yeast gene YOR259C): 0.9 | The level of expressed mRNA in the presence of chemical substance/The level of expressed mRNA in the absence of chemical substance (yeast gene YOR261C): 1.0 | The level of expressed mRNA in the presence of chemical substance/The level of expressed mRNA in the absence of chemical substance (yeast gene YOR288C): 1.5 | The level of expressed mRNA in the presence of chemical substance/The level of expressed mRNA in the absence of chemical substance (yeast gene YOR355W): 0.8 | The level of expressed mRNA in the presence of chemical substance/The level of expressed mRNA in the absence of chemical substance (yeast gene YOR383C): 1.4 | The level of expressed mRNA in the presence of chemical substance/The level of expressed mRNA in the absence of chemical substance (yeast gene YPL089C): 1.5 | The level of expressed mRNA in the presence of chemical substance/The level of expressed mRNA in the absence of chemical substance (yeast gene YPL109C): 1.2 | The level of expressed mRNA in the presence of chemical substance/The level of expressed mRNA in the absence of chemical substance (yeast gene YPL149W): 2.2 | The level of expressed mRNA in the presence of chemical substance/The level of expressed mRNA in the absence of chemical substance (yeast gene YPL154C): 1.6 | The level of expressed mRNA in the presence of chemical substance/The level of expressed mRNA in the absence of chemical substance (yeast gene YPR103W): 1.2 | The level of expressed mRNA in the presence of chemical substance/The level of expressed mRNA in the absence of chemical substance (yeast gene YPR108W): 1.0
